We go through one compound from patent US5795899A, “Soluble salts of 4-amino-2-(4,4-dimethylimidazolidin-2-on-1-yl) pyrimidine-5-carboxylic acid N-methyl-N-(3-trifluoromethylphenyl)-amide, a process for the preparation thereof, the use thereof as pharmaceuticals and starting materials” (Hoechst Aktiengesellschaft, priority 1992, dated 1998).

Data set [1] has as its system bronchial carcinoma cells, A 549. Kind of data set: MTT assay, inhibition of cell proliferation, A 549. Type of data set: cell-based. Particulars: Homo sapiens, A549; 72 hours incubation. The procedure: (§1) The reduced inhibitory effect on cell proliferation was tested on exponentially growing animal (mouse leukemia cells, L 1210) and human (bronchial carcinoma cells, A 549; colon carcinoma cells, HT 29) tumor cells. This entailed the tumor cells being incubated in RPMI standard medium with various concentrations of the test substances for 72 hours. Cell incubations only in fresh medium served as control. Incubations were set up in quadruplet. […] After incubation for a further 7 to 24 hours, the cell supernatant was carefully removed and the formazan dye in the cells was solubilized by adding DMSO and measured quantitatively by photometry at 492 nm. The ratio of the extinction of the substance incubations to the control incubation was quantified. The coefficient of variation in each incubation series was less than 15%. The following Table 6 indicates the IC50 values (IC50 [μg/ml] is the concentration of the test substance per ml which is necessary for 50% inhibition) from these investigations.

A further data set concerns LDL receptor. Kind of data set: Uptake of 125I-labeled homologous LDL / functional LDL receptor levels on HepG2 cells. The class given is cell-based, human. As to conditions: FIG. 3. Here is the method:
In this test, homologous LDL which had been purified by standard processes was labeled with ^125 I by the iodine monochloride method. Used in this case was the method of Bilheimer which is disclosed in the literature and is a modification of the iodination technique originally developed by McFarlaine (compare Bilheimer, D. W., Eisenberg, S., and Levy, R. L., Biochim. Biophys. Acta, 260, 212 (1972)).
To determine the ^125 I-LDL incorporation, HepG2 cells were preincubated with and without hydrochloride of the compound I for 36 hours and subsequently incubated with iodine-labeled LDL at 37° C. in an incubator for 3 hours.
Subsequently, the cells were washed in the presence of 2% bovine serum albumin, the cells were lyzed with 1 ml of 0.1N NaOH, and the incorporated radioactivity was measured. The specific radioactivity uptake (total radioactivity uptake less the unspecific radioactivity uptake) per mg of protein was then calculated, as generally customary, via a protein determination by the Lowry method, and the radioactivity taken up by the control […] was set equal to 100%.

For a further data set, the system named is LDL receptor mRNA. Kind of data set: LDL receptor mRNA expression in vivo in rat livers (Northern blot). Particulars: 6 hours after single oral dose of 30 mg/kg, FIG. 1. The procedure: Liver tissue was removed at the stated time after a single oral dose of 30 mg/kg of the hydrochloride of compound I and was shock-frozen in liquid nitrogen.
The Northern blot technique was used to determine the relative LDL receptor MRNA levels. The LDL receptor MRNA level is increased about 2.5-fold after six hours.
The mRNA was prepared by the method described by Chomczynski, P. and Sacchi, N. in Anal. Biochem. 162, 156 (1987). In the case of organs (such as, for example, liver), the deep-frozen tissue was previously homogenized in a mortar on dry ice, and the mRNA was further concentrated by means of oligo dT by standard methods (compare Sambrook, J., Fritsch, E. F. and Maniatis, T., Molecular Cloning, second edition, Cold Spring Harbor (1989); this collection of methods also includes descriptions of all the other relevant standard processes of molecular biology used here). […] The filters were subsequently exposed on Cronex 4 films (Dupont) in the presence of an intensifying screen at -70° C. overnight or for up to 14 days, and the hybridization signals were quantified from the intensity of blackening of the film using a commercially available laser densitometer. Subsequently, the quotient was determined from the intensity of the LDL receptor band and of the actin band as internal standard to correct for variations in yield. […]

The next data set deals with T1, HMG-CoA reductase (Rattus norvegicus, UniProt P51639).
T1 construct: partially purified HMG-COA reductase from rat liver; from tissue; host or cells: rat liver (partially purified enzyme)
T1 sequence (P51639 1-887): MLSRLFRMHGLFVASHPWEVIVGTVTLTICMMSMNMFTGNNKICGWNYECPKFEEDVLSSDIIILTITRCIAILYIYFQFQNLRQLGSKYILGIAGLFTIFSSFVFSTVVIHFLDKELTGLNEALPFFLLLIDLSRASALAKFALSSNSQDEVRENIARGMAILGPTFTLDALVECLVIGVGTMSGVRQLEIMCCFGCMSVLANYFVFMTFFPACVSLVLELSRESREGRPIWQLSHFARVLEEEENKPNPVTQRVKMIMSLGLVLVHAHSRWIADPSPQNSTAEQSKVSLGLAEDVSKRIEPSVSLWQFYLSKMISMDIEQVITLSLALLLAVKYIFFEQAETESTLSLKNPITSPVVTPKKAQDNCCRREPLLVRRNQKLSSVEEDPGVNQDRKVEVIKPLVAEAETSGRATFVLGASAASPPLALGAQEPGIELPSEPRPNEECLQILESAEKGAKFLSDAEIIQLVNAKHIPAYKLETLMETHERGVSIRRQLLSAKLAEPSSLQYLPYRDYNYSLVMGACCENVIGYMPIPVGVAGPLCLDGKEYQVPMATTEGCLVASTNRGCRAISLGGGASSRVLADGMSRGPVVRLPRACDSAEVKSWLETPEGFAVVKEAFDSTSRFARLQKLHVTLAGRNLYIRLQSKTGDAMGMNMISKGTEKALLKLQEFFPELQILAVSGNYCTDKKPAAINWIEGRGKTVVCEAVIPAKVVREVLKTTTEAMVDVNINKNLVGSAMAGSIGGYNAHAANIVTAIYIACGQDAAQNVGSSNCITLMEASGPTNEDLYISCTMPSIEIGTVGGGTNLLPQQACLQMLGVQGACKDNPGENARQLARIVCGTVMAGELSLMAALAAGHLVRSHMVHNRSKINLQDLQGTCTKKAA
Kind of data set: HMG-CoA reductase determination in vitro on partially purified HMG-CoA reductase from rat liver. Type of data set: biochemical. Particulars: 10^-5 M; variation 10%.

In data set [2] the test system is colon carcinoma cells, HT 29. Put plainly: MTT assay, inhibition of cell proliferation, HT 29. Type of data set: cell-based. Particulars: Homo sapiens, 72 hours incubation. Here is the method: as §1
For orientation: Formazan colour is commonly taken as a measure of viable cells.

For `CN(C(=O)c1cnc(N2CC(C)(C)NC2=O)nc1N)c1cccc(C(F)(F)F)c1.Cl` [Compound I as hydrochloride, 4-amino-2-(4,4-dimethyl-2-oxo-1-imidazolidinyl)pyrimidine-5-carboxylic acid N-methyl-N-(3-trifluoromethylphenyl)amide hydrochloride], the “Solubility in water (in words)” value is listed as “good solubility”. In data set [1], the IC50 (as a rule, the midpoint of a concentration-inhibition curve) is greater than 100 µg/mL. In the data set with LDL receptor, the “Functional LDL receptor levels on HepG2 cells” value is given as “corresponding increase”. Also, in the data set with LDL receptor (HepG2, preincubation 36 hours, then 125I-LDL at 37° C. 3 hours), the “Increase in uptake of 125I-labeled homologous LDL” value is “increased by up to two and a half times”. Besides, in the data set with LDL receptor mRNA, the “Increase in LDL receptor mRNA level in rat liver” value was “about 2.5 -fold”. Also, the “Influence on HMG-CoA reductase enzyme activity compared with control incubations” value on HMG-CoA reductase is reported as “does not influence”. Also, under “Table 2, Temp. [°C]: hydrochloride 25.0, nitrate 23.5, p-toluenesulfonate 23.2, hydrogen (R,R)-tartrate 24.6, free base 24.8”, the “1 part by mass dissolves in . . . parts of H2 O” value is 1.33 parts of H2 O. This compound had an IC50 in data set [2] greater than 100 µg/mL.
